59 compounds from ChEMBL document CHEMBL1201862, “PubChem BioAssay data set” (2004) can be followed below.

Assay in all cases: NCI-60 cell line screen, 48 h
Test [1] deals with MCF7.
The subject of test [2] is DLD-1.
Test [3] concerns HOP-18.
The test system of test [4] is KM-20L2.
For test [5], the system named is LXFL 529.
Test [6] deals with XF498.
The test system of test [7] is M19-MEL.
Test [8] concerns DMS-273.

“And” between values parts separate entries of the source, which are not always exact repeats. Equal values may be shown once.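 The compound was tested at five concentrations on cells cultured in 96-well plates, with a 48-hour exposure period. At the GI50, growth is halved.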 The source made the active and inactive calls. No stated cut-off is given here; in the data, active = GI50 up to about 1.1 µM and inactive = higher.

Regarding `COc1ccc2c(c1)C(=O)CCc1cc(OC)c(OC)c(OC)c1-2`, the GI50 in test [1] is < 0.01 µM (active).
With `OCCSCC(O)Cn1cnc2c(O)nc(Nc3ccccc3)nc21` (stereo not drawn), the GI50 in test [1] is > 100 µM (inactive).
For the compound `CCNc1cc2c(cc1O)CC[C@@H]1[C@@H]2CC[C@]2(C)[C@@H](O)CC[C@@H]12`, the GI50 in test [1] was 8.43 µM (inactive).
As for `Cc1cc(Oc2cnc(=O)[nH]c2)cs1`, the GI50 in test [1] is > 100 µM (inactive).
Consider `COc1ccc(CN(CCN(C)C)c2ccccn2)cc1.Cn1c(=O)c2[nH]c(Br)nc2n(C)c1=O`, for which the GI50 in test [2], in test [3], in test [4], in test [5] and in test [6] was > 100 µM (inactive) in each case.
For the compound `CNC(=S)N/N=C(\C)c1cc(OC)c(OC)cc1O`, the GI50 in test [1] is > 100 µM (inactive).
On to `O=C1CCC2(c3ccc(F)cc3)Nc3ncccc3N12` (stereo not drawn), for which the GI50 in test [2], in test [4], in test [5], in test [7] and in test [6] was > 100 µM (inactive) in each case.
In the case of `COc1ccc(-c2nc(SCC(=O)N/N=C/c3ccc([N+](=O)[O-])cc3)[nH]c2-c2ccc(OC)cc2)cc1`, the GI50 in test [1] was 4.44 µM (inactive).
On the same count and under the same terms, the value for `C=CCN1CN(C2CCCCC2)CSC1=S` was 1.26 µM (inactive).
Still for that read-out and setting: the value for `O=C(Nc1sccc1S(=O)(=O)c1ccccc1)c1cccnc1` was 8.07 µM (inactive).
Still for that read-out and setting: in the case of `COc1ccc(CC(COS(=O)(=O)c2ccc(C)cc2)NS(=O)(=O)c2ccc(C)cc2)cc1` (stereo not drawn) it was 8.24 µM (inactive).
On to `O=C(CO)CC(=O)C(=O)Nc1cccc(C(F)(F)F)c1`, for which the GI50 in test [2], in test [8], in test [4], in test [5] and in test [6] was > 100 µM (inactive) each time.
In the case of `COc1ccc(/C=C2\NC(=S)N(CN3CCCCC3)C2=O)cc1`, the GI50 in test [1] is 21.8 µM (inactive).
With `Cc1cc(=O)n(-c2cc3cccccc-3n2)[nH]1`, the GI50 in test [2] is 5.61 µM (inactive); in test [3], 3.95 µM (inactive); in test [4], 38.4 µM (inactive); in test [5], 3.79 µM (inactive); in test [7], 3.95 µM (inactive); in test [6] it was 4.03 µM (inactive).
Turning to `CCOC(=O)CCSS(=O)(=O)c1ccccc1`, the GI50 in test [1] was 28.6 µM (inactive).
The same measure, in the same setting: the value for `CCOC(=O)c1c(CN2CCOCC2)n(Cc2ccccc2)c2c1cc(O)c1nc(C)c(C)nc12` was 16.7 µM (inactive); that for `N#Cc1cc(C#N)c(N)nc1N` was > 100 µM (inactive).
As to `O=C(CC1Sc2ccccc2NC1=O)Nc1cccc(Cl)c1` (stereo not drawn), the GI50 in test [2] is 48.4 µM (inactive); in test [8] it was 28.2 µM (inactive); in test [4] it was 38.2 µM (inactive); in test [5], 42.1 µM (inactive); in test [7], 81.5 µM (inactive); in test [6], 28 µM (inactive).
On to `Cc1ccc(Nc2n[nH]c(=S)s2)cc1`, for which the GI50 in test [1] was > 100 µM (inactive).
Regarding `CCOC(=O)C(SCCO)C(C(=O)OCC)n1ccc(N)nc1=O` (stereo not drawn), the GI50 in test [1] is > 100 µM (inactive).
On the same count and under the same terms, in the case of `CN(C)C(=S)C(Cl)(c1ccccc1)c1ccccc1` it was 28.6 µM (inactive); in that of `O=C(O)C1CCCN1Cc1ccc2c(c1)OCO2` (stereo not drawn), > 100 µM (inactive).
Same read-out and setting: the value for `CC1CC(C)CN(S(=O)(=O)c2cc(Cl)c(Oc3ccc([N+](=O)[O-])cc3Cl)c(Cl)c2)C1` (stereo not drawn) was > 100 µM (inactive).
Take `COc1cc(OC)nc(NC(=O)NS(=O)(=O)c2cccc3ncn(C)c(=O)c23)n1`: the GI50 in test [1] is > 100 µM (inactive).
The same measure, in the same setting: in the case of `CC(C)CCCC(C)[C@H]1CCC2[C@@H]3CCC4Cc5nc6c(nc5C[C@]4(C)C3CC[C@@]21C)CC1CC[C@@H]2C(CC[C@@]3(C)C2CC[C@@H]3C(C)CCCC(C)C)[C@@]1(C)C6` (stereo partly drawn) it was > 100 µM (inactive); in that of `CC(=O)O[C@H]1CC2C(C3CC[C@H](C(C)CCC(N)=O)[C@]31C)[C@H](OC(C)=O)C[C@@H]1CC3(CC[C@]21C)OOC1(CCC(C)CC1)OO3` (stereo partly drawn), 2.04 µM (inactive) and 2.65 µM (inactive).
Still for that read-out and setting: in the case of `CCCOC(=O)C1C2CCC(O2)C1C(=O)O` (stereo not drawn) it was > 100 µM (inactive).
Take `CCOC(=O)NC(=O)c1cn(CCOC(=O)NCCCCCCNC(=O)OCCn2cc(C(=O)NC(=O)OCC)c(=O)[nH]c2=O)c(=O)[nH]c1=O`: the GI50 in test [2], in test [8], in test [3], in test [4], in test [5] and in test [7] was > 100 µM (inactive) in each case.
With `C=C1CC2(CCCC3(CC(=C)C(=O)O3)C2(C)C)OC1=O` (stereo not drawn), the GI50 in test [1] is 3.4 µM (inactive).
As for `CC12N=NNC1C(=O)NC2=O` (stereo not drawn), the GI50 in test [2], in test [8], in test [4], in test [5] and in test [7] was > 100 µM (inactive) each time.
For `CCC1CCN=C(Cn2cc(C)c(=O)[nH]c2=O)N1` (stereo not drawn), in test [1], the GI50 was > 100 µM (inactive).
The same measure, in the same setting: in the case of `Nc1nc(Br)nc2ncn(C3CC(O)C(CO)O3)c12` (stereo not drawn) it was > 21.3 µM (inactive).
Consider `COC(=O)CCC(=O)Nc1cccc(C(F)(F)F)c1`, for which the GI50 in test [2], in test [8], in test [3], in test [4], in test [5] and in test [7] was > 100 µM (inactive) each time. For the same compound, the GI50 in test [6] was > 100 µM (inactive).
Regarding `CCCCCCC(=O)C/C(=N/NC(N)=S)C(=O)NC1C2CC3CC(C2)CC1C3` (stereo not drawn), the GI50 in test [2], in test [4], in test [5] and in test [7] was > 100 µM (inactive) each time.
Regarding `COc1cc(/C=C2/SC(c3ccccc3)N(c3ccccc3)C2=O)cc(OC)c1OC` (stereo not drawn), the GI50 in test [1] is 37.8 µM (inactive).
Still for that read-out and setting: in the case of `CCCCc1ccc(-n2sc3ncc([N+](=O)[O-])cc3c2=O)cc1` it was 16 µM (inactive).
Same read-out and setting: the value for `Oc1ccc(-c2nc(-c3ccc4ccccc4n3)c(-c3ccc(F)cc3)[nH]2)cc1` was 4.61 µM (inactive); that for `Nc1nc2c(ncn2Cc2ccc(CO)cc2)c(=O)[nH]1` was > 100 µM (inactive).
On the same count and under the same terms, in the case of `COc1ccc2c(C)c(Oc3c(Cl)c(Cl)c(O)c(C#N)c3C#N)oc2c1` it was > 100 µM (inactive).
`COC12C=C(C)C(CC1)CC2C(=O)O` (stereo not drawn): the GI50 in test [2], in test [8], in test [3], in test [4], in test [5] and in test [7] was > 100 µM (inactive) each time. In addition, the GI50 in test [6] was > 100 µM (inactive).
On to `C[C@@]1(CO)[C@H](O)CC[C@@]2(C)[C@H]1CC[C@H]1C[C@@H]3C[C@@]12CC[C@@]3(O)COC(=O)CN`, for which the values for the GI50 in test [8], in test [3] and in test [5] were 0.486 µM (active), > 76 µM (inactive) and > 100 µM (inactive), respectively.
With `N#C/N=C1/c2ccccc2/C(=N/C#N)c2cc(CO)ccc21`, the GI50 in test [1] was 30.6 µM (inactive).
Still for that read-out and setting: in the case of `CCN(CC)C(=O)N1CN(c2ccccc2)C2(CCN(CCCC3(c4ccc(F)cc4)OCCO3)CC2)C1=O` it was 4.75 µM (inactive).
For the compound `CCOC(=O)C1=C(C)N(Cc2ccc(Cl)cc2Cl)C2(O)C=CC(=O)C3C(=O)N(c4ccccc4)C(=O)C132` (stereo not drawn), the GI50 in test [1] is 0.857 µM (active).
For the compound `Cc1cn(C2CC(O)C(Cn3nncc3Cn3ccc(=O)[nH]c3=O)O2)c(=O)[nH]c1=O` (stereo not drawn), the GI50 in test [1] is > 100 µM (inactive).
On the same count and under the same terms, in the case of `CNc1ccc(Cl)cc1C(=O)N1CCC[C@H]1CO` it was > 100 µM (inactive); in that of `N#Cc1nc(-c2ccco2)oc1N`, > 10 µM (inactive).
The same measure, in the same setting: the value for `CN(C(=O)c1ccc(Cl)cc1)C(=S)N1CCN(c2ccccc2)CC1` was 78.9 µM (inactive); that for `CCN(CC)c1ncnc2c1ncn2CCNC(CO)(CO)CO` was > 100 µM (inactive); that for `CCOC(=O)c1c(C)n(-c2ccc(C)cc2)c2c1cc(O)c1[nH]c3c(c12)CCCC3` was 16.5 µM (inactive).
`CCCSc1ccc2[nH]c(N3C(=O)/C(=C/c4ccco4)N=C3c3ccccc3)cc2c1`: the GI50 in test [1] is 15.8 µM (inactive).
For the compound `C=C1C(=O)OC2C[C@H](C)C3CC(=O)C(C)=C3CC12` (stereo partly drawn), the GI50 in test [2] was 7.38 µM (inactive); in test [8], 17.1 µM (inactive); in test [4] it was 14.8 µM (inactive); in test [5], 10.6 µM (inactive); in test [7], 13.2 µM (inactive); in test [6] it was 16.5 µM (inactive).
`CCCCCC/C=C1\CCC(CN2CCOCC2)C1=O` (stereo not drawn): the GI50 in test [2] is 10.5 µM (inactive); in test [8] it was 15.9 µM (inactive); in test [3], 0.807 µM (active); in test [4] it was 20.2 µM (inactive); in test [5], 3.3 µM (inactive); in test [6] it was 16.1 µM (inactive).
As to `Oc1cccc2ccc(Br)nc12`, the GI50 in test [1] was > 100 µM (inactive).
Turning to `Nc1nc2[nH]cnc2c(=O)[nH]1`, the GI50 in test [2], in test [8], in test [3], in test [4], in test [5] and in test [7] was > 100 µM (inactive) throughout. In test [6], the GI50 was > 100 µM (inactive).
For the compound `O/N=N/c1ccccn1.OCC1OC2OC3C(CO)OC(OC4C(CO)OC(OC5C(CO)OC(OC6C(CO)OC(OC7C(CO)OC(OC1C(O)C2O)C(O)C7O)C(O)C6O)C(O)C5O)C(O)C4O)C(O)C3O` (stereo not drawn), the GI50 in test [1] was > 100 µM (inactive).
In the case of `COc1cccc2c1C(=O)c1c(O)c3c(c(O)c1C2=O)C[C@@](O)(C(=O)CO)CC3OC1CC(NCCOCC(OC(C)=O)OC(C)=O)C(O)C(C)O1` (stereo partly drawn), the GI50 in test [2] is 0.01 µM (active); in test [3], < 0.01 µM (active); in test [4] it was < 0.01 µM (active); in test [5], < 0.01 µM (active); in test [7], < 0.01 µM (active); in test [6] it was < 0.01 µM (active).
`CC(C)[C@@H]1ON1C(C)c1ccccc1` (stereo partly drawn): the GI50 in test [1] is 13.7 µM (inactive).
Consider `O=C(NN1C(=O)C(Cl)C1c1c(O)ccc2ccccc12)c1ccccc1O` (stereo not drawn), for which the GI50 in test [2], in test [8], in test [3], in test [5], in test [7] and in test [6] was > 100 µM (inactive) each time.
